Experimental data reported in patent US8357786B2, “Method for preparing Gynostemma pentaphyllum extract with increasing damulin A and damulin B contents, and pharmaceutical compositions of the same for treating metabolic disease” (TG Biotech Co., Ltd., priority 2009, dated 2013).

Columns and labels:
Type in all cases: cell-based
L6 myotube cells [1] = experiment: 2-DG (glucose) absorption into L6 myotube cells
Text: It is well known that the activation of AMPK also increases the glucose absorption into cells, and thus causes a blood glucose level reducing effect (Hardie, et al., FEBS Lett. 546, 113-120, 2003; Carling, et al., Trends. Biochem. Sci. 29, 18-24, 2004; Kahn, et al., Cell Metab. 1, 15-25, 2005; Cool, et al., Cell Metab. 3. 403-416, 2006; Lee et al., Diabetes, 55, 2256-2264, 2006; Hwang et al., Biochem. Biophys. Res. Commun. 371, 289-293, 2008). Accordingly, the treatment of damulin A and damulin B on L6 myotube cells was carried out to determine the influence on the glucose absorption into cells.
To cultured L6 myotube cells, high concentration glucose was added together with 2-DG (2-deoxy-[3H]D-glucose) (a radioactive isotope that is not decomposed within a cell) according to the method of Hwang et al. (Biochem. Biophys. Res. Commun. 377, 1253-1258), and then the accelerated extent of 2-DG absorption into cells by damulin A (30 μg/ml) and damulin B (5 μg/ml) was analyzed. As a result, in the damulin A-treated cells, the capability of absorbing glucose was increased by 42% on the average, and in the damulin B-treated cells, the capability was increased by about 79% (see FIG. 6). Therefore, based on the result, both damulin A and damulin B are determined to have a high anti-diabetes effect by decreasing blood glucose level.

AMPK = experiment: Phosphorylation of AMPK (Thr-172 of α subunit) in L6 myotube cells, western blot; details: 2 hours, damulin A 10, 30, 60 μg/ml, damulin B 1, 5, 10 μg/ml, compared to control group
Text: The activity of AMPK may be determined by determining whether or not the phosphorylation of a threonine amino acid residue at position 172 was increased.

[2] = tested on: ACC (acetyl-CoA carboxylase); experiment: Phosphorylation of ACC (Ser-79) in L6 myotube cells, western blot; details: 2 hours, damulin A 10, 30, 60 μg/ml, damulin B 1, 5, 10 μg/ml, compared to control group
Text: ACC is an important enzyme for regulating lipid metabolism in liver and muscle tissues. This enzyme carboxylates acetyl-CoA to produce malonyl-CoA. Malonyl-CoA is the most important factor for regulating β-oxidation of fatty acid within mitochondria. When the concentration of malonyl-CoA increases, the activity of CPT-1 (carnitine palmitoyl-CoA transferase) in mitochondrial membrane is reduced, thereby inhibiting β-oxidation of fatty acid, and on the other hand, when the concentration of malonyl-CoA decreases, β-oxidation is increased, accelerating the reduction of body fat. ACC is a subordinate target protein in AMPK activity, and is phosphorylated by the activation of AMPK. […]
Accordingly, differentiated L6 myotube cells were treated with individually separated damulin A with different concentrations (10, 30, and 60 μg/ml), and treated with individually separated damulin B with different concentrations (1, 5, and 10 μg/ml), for 2 hours. The increased extent of the phosphorylation of a threonine residue at (Thr)-172 of AMPK α subunit, and a serine residue at Ser-79 of an ACC enzyme protein was analyzed through western blot analysis according to the method of Hwang, et al. (Biochem. Biophys. Res. Commun. 371, 289-293, 2008). […] Also, both damulin A and damulin B were determined to be active ingredients which phosphorylate and activate AMPK, and phosphorylate and inactivate ACC. […]

L6 myotube cells [3] = experiment: β-oxidation of fatty acid in L6 myotube cells
Protocol: When AMPK is activated, the activity of ACC is reduced, thereby reducing the concentration of malonyl-CoA within mitochondria. This accelerates the transport of fatty acid into mitochondria, and thereby increases β-oxidation. Thus, due to the reduction of body fat, an obesity inhibiting effect can be achieved. Cultured L6 myotube cells were treated with purely separated damulin A and damulin B, and the improving effect on β-oxidation of fatty acid was analyzed by the method of Hwang, et al. (Biochem. Biophys. Res. Commun. 377, 1253-1258).
As a result, it was observed that damulin A (30 μg/ml) and damulin B (5 μg/ml) increased β-oxidation of fatty acid 1.8 times and 2.6 times (see FIG. 5).

Row | SMILES | increase of capability of absorbing glucose (2-DG absorption into cells) (L6 myotube cells [1]; 5 μg/ml) | phosphorylation of threonine residue (Thr)-172 of AMPK α subunit (AMPK) | phosphorylation of serine residue Ser-79 of ACC [2] | increase of β-oxidation of fatty acid (L6 myotube cells [3]; 5 μg/ml) | increase of capability of absorbing glucose (2-DG absorption into cells) (L6 myotube cells [1]; 30 μg/ml) | increase of β-oxidation of fatty acid (L6 myotube cells [3]; 30 μg/ml)
1 | C=C(CCC=C(C)C)[C@H]1CC[C@]2(C)C1[C@H](O)CC1[C@@]3(C)C[C@@H](O)[C@H](OC4OC(CO)[C@@H](O)[C@H](O)[C@@H]4OC4OC(CO)[C@@H](O)[C@H](O)[C@@H]4O)C(C)(C)C3CC[C@]12C (stereo partly drawn) [damulin B, 2α,3β,12β-trihydroxydammara-20,24-diene-3-O-[β-D-glucopyranosyl-(1→)-β-D-glucopyranoside]] | about 79% | concentration-dependently increased the phosphorylation | concentration-dependently increased the phosphorylation | 2.6 times |  | 
2 | CC(C)=CC/C=C(/C)[C@H]1CC[C@]2(C)C1[C@H](O)CC1[C@@]3(C)C[C@@H](O)[C@H](OC4OC(CO)[C@@H](O)[C@H](O)[C@@H]4OC4OC(CO)[C@@H](O)[C@H](O)[C@@H]4O)C(C)(C)C3CC[C@]12C (stereo partly drawn) [damulin A, 2α,3β,12β-trihydroxydammar-20(22)-E,24-diene-3-O-[β-D-glucopyranosyl-(1→)-β-D-glucopyranoside]] |  | concentration-dependently increased the phosphorylation | concentration-dependently increased the phosphorylation |  | 42% | 1.8 times
